Experiment [1] addresses T1, DCAF15 RBM39 ternary complex (Homo sapiens, UniProt Q14498+Q66K64, DEL276-383).
T1 construct: Amino acids 150 to 331 of RBM39 were cloned into pGEX4T3; GST (from the pGEX4T3 vector, own knowledge) followed by a TEV cleavage site (N); made in house; host or cells: Sf9 baculovirus (DDB1ΔB/DCAF15); E. coli (RBM39 R1R2)
Kind of experiment: DCAF15 RBM39 complex formation assay (FRET). In kind it is biochemical. An excerpt:
(§1) Proteins used for the assays were as follows: Human DDA1 (UniProt:Q9BW61), DDB1 (UniPro: Q16531), and DCAF15 (UniProt: Q66K64) coding sequences were cloned into pFastBac1 vectors and were co-expressed in Sf9 cells using Bac-to-Bac baculovirus expression system (Thermo Fisher Scientific). The expression construct for DCAF15 includes a N-terminal His6-tag to facilitate the purification.
DCAF15 RBM39 Complex Formation Assay
LANCE Eu-W1024 Anti-6×His and SureLight Allophycocyanin-anti-FLAG antibodies were purchased from Perkin Elmer. Human DDB1DB and His-tagged DCAF15 were co-expressed in baculovirus/sf9 system. […] The His-tagged DCAF15 contains six histidine residues directly preceding the DCAF15 sequence without any linker. An RBM39 fragment containing RRM1 and RRM2 was expressed in E. coli.
A compound of the present disclosure in DMSO (2 μL) was transferred to a 384-well assay plate. Compound was added in 14 points, 3-fold serial dilution (1 μM to 0.6 pico molar) in DMSO. […] FRET assay buffer (25 mM HEPES, pH 7.5, 100 mM NaCl, […], 0.5 mM TCEP, 0.005% Tween-20, 0.2 nM Eu-W1024 Anti-6×His, 50 nM SureLight Allophycocyanin-anti-FLAG, 20 nM DDB1DB/DCAF15, 50 nM RBM39 R1R2) was added and the resulting solution was incubated overnight at 4° C. […] Low signal controls containing no compound and high signal controls containing 10 mM indisulam were measured for each plate.
EC50 values were calculated using Dotmatics template equation for 4-parameter fit.
Results are expressed as % formation using the following equation: […]

Experiment [2] addresses T2, DCAF15 (DDA1-DDB1ΔB-DCAF15Δpro) (Homo sapiens, UniProt Q66K64, DEL276-383).
T2 construct: made in house; host or cells: Sf9 (Bac-to-Bac baculovirus)
In words: DCAF15 displacement assay (displacement FRET, probe PT7795). In kind it is binding.
From the text: as §1
DCAF15 Displacement Assay (Displacement FRET KD)
Synthesis of the probe PT7795 is described in the article.
Binding of PT7795 to DDA1-DDB1AB-DCAF15Δpro was measured by the FRET signal between europium-labeled anti-His antibody (AD0205, Perkin Elmer) that is associated with His-tagged DCAF15 and ALX647 moiety in PT7795. […] After equilibrating for 2-3 hours at 4° C., the plate was removed from the incubator, briefly spun, then read on a Spark 10 (Tecan) at the excitation/emission wavelength of 340 nm/615 nm and 340 nm/665 nm.
Binding of compounds in this disclosure to DCAF15 was measured in a competition by the displacement of PT7795. The concentration of PT7795 was kept at 300 nM while the concentration of a compound was varied from 0.01 to 100 μM. The incubation time was increased to 18 hours for enhanced signal to noise level.
F=Fmin+(Fmax−Fmin)/(1+10^(logIC50−log[Compound])^n) (Equation 2)
The Kds can then be calculated from IC50s using Equation 3 (Cheng-Prusoff equation).

Setting [3] is: FRET ratio, 20 nM DDB1DB/DCAF15, 50 nM RBM39 R1R2, overnight at 4° C., read-out: DCAF15 RBM39 ternary complex EC50.
The mark [4] stands for this setting: displacement of PT7795 (300 nM), compound 0.01 to 100 μM, 18 hours incubation, read-out: DCAF15 displacement IC50.

Where two headings read alike, the source gives them in different places. Bounds are passed on as bounds.

By EC50 is commonly meant the concentration at which the effect is half-maximal. One may read the IC50 as the concentration that inhibits the measured activity by half.

T1 sequence (Q66K64 with tags, fused parts or gaps DEL276-383): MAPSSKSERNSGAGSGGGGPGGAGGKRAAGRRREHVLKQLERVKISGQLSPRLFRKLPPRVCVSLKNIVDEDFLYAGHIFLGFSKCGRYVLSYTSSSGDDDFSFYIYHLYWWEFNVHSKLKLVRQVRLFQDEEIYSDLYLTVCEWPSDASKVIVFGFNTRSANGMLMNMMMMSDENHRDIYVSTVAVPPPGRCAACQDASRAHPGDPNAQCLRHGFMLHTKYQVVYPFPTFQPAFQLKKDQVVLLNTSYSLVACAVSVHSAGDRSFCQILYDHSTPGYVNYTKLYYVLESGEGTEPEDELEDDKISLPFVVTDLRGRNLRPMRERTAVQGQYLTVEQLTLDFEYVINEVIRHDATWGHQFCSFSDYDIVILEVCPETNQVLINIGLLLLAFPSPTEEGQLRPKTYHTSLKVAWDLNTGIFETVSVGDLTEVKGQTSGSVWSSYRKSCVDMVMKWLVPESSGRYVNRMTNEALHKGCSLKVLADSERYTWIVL
T1 sequence (Q14498 150-331, stated change not applied): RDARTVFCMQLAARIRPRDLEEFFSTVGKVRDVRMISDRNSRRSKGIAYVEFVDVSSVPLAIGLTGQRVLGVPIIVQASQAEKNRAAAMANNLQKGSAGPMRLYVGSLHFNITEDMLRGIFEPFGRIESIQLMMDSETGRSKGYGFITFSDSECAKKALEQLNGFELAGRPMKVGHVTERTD

For the compound `Cn1ccc(CN2Cc3cc(Cl)c4c(Cl)c[nH]c4c3NS2(=O)=O)cc1=O` [Compound 61, 4-((6,7-dichloro-2,2-dioxido-4,9-dihydro-[1,2,6]thiadiazino[4,3-g]indol-3(1H)-yl)methyl)-1-methylpyridin-2(1H)-one], in experiment [1] (setting [3]), the EC50 was 0.123 µM. Also, the IC50 in experiment [2] (setting [4]) was found to be 1.24 µM.

Consider `Cn1c(CN2Cc3cc(Cl)c4c(Cl)c[nH]c4c3NS2(=O)=O)cccc1=O` [Compound 62, 6-((6,7-dichloro-2,2-dioxido-4,9-dihydro-[1,2,6]thiadiazino[4,3-g]indol-3(1H)-yl)methyl)-1-methylpyridin-2(1H)-one], for which the EC50 in experiment [1] (setting [3]) was 0.155 µM. Also, the IC50 in experiment [2] (setting [4]) was 1.07 µM. For `CS(=O)(=O)CCCN1Cc2cc(Cl)c3c(Cl)c[nH]c3c2NS1(=O)=O` [Compound 77, 6,7-dichloro-3-(3-(methylsulfonyl)propyl)-1,3,4,9-tetrahydro-[1,2,6] thiadiazino[4,3-g]indole 2,2-dioxide], in that order: 0.0008 µM and 0.68 µM. Taken in the same sequence, the figures for `Nc1ccc(CN2Cc3cc(Cl)c4c(Cl)c[nH]c4c3NS2(=O)=O)cc1` [Compound 78, 3-(4-aminobenzyl)-6,7-dichloro-1,3,4,9-tetrahydro-[1,2,6]thiadiazino[4,3-g]indole 2,2-dioxide] were 0.0007 µM and 1.17 µM. Take `COCCN1Cc2cc(F)c3c(Cl)c[nH]c3c2NS1(=O)=O` [Compound 79, 7-chloro-6-fluoro-3-(2-methoxyethyl)-1,3,4,9-tetrahydro-[1,2,6] thiadiazino[4,3-g]indole 2,2-dioxide]: in experiment [1] (setting [3]), the EC50 worked out at 0.0089 µM. In experiment [2] (setting [4]), the IC50 was 19.5 µM. Taken in the same sequence, the figures for `O=S1(=O)Nc2c(ccc3c(Cl)c[nH]c23)CN1C1CCCOC1` (centres unmarked) [Compound 80, 7-chloro-3-(tetrahydro-2H-pyran-3-yl)-1,3,4,9-tetrahydro-[1,2,6]thiadiazino[4,3-g]indole 2,2-dioxide] were 0.0182 µM and 1.81 µM. For `COCCN1Cc2ccc3c(Cl)c[nH]c3c2NS1(=O)=O` [Compound 81, 7-chloro-3-(2-methoxyethyl)-1,3,4,9-tetrahydro-[1,2,6] thiadiazino[4,3-g]indole 2,2-dioxide], in that order: 0.0177 µM and 32 µM. Taken in the same sequence, the figures for `O=S1(=O)Nc2c(ccc3c(Cl)c[nH]c23)CN1c1cccnc1` [Compound 82, 7-chloro-3-(pyridin-3-yl)-1,3,4,9-tetrahydro-[1,2,6]thiadiazino[4,3-g]indole 2,2-dioxide] were 0.0011 µM and 3.32 µM. `O=S1(=O)Nc2c(cc(Cl)c3c(Cl)c[nH]c23)CN1CC1CC(O)C1` (centres unmarked) [Compound 88, 6,7-dichloro-3-((3-hydroxycyclobutyl)methyl)-1,3,4,9-tetrahydro-[1,2,6]thiadiazino[4,3-g]indole 2,2-dioxide]: the EC50 in experiment [1] (setting [3]) was 0.0016 µM. For the same compound, the IC50 in experiment [2] (setting [4]) came out at 0.231 µM.

For the compound `O=S1(=O)Nc2c(cc(Cl)c3c(Cl)c[nH]c23)CN1CC1CCCO1` (centres unmarked) [Compound 89, 6,7-dichloro-3-((tetrahydrofuran-2-yl)methyl)-1,3,4,9-tetrahydro-[1,2,6] thiadiazino[4,3-g]indole 2,2-dioxide], the EC50 in experiment [1] (setting [3]) was determined as 0.0008 µM. For the same compound, the IC50 in experiment [2] (setting [4]) turned out to be 0.574 µM. Take `O=S1(=O)Nc2c(cc(Cl)c3c(Cl)c[nH]c23)CN1CC1CCCNC1` (centres unmarked) [Compound 90, 6,7-dichloro-3-(piperidin-3-ylmethyl)-1,3,4,9-tetrahydro-[1,2,6] thiadiazino[4,3-g]indole 2,2-dioxide]: the EC50 in experiment [1] was determined as 0.001 µM. This compound displayed an IC50 in experiment [2] of 0.274 µM. In the case of `CC(=O)N1CCCC(CN2Cc3cc(Cl)c4c(Cl)c[nH]c4c3NS2(=O)=O)C1` (centres unmarked) [Compound 91, 1-(3-((6,7-dichloro-2,2-dioxido-4,9-dihydro-[1,2,6]thiadiazino[4,3-g]indol-3(1H)-yl)methyl)piperidin-1-yl) ethan-1-one], the half-maximal effective concentration (EC50) in experiment [1] (setting [3]) came to 0.0004 µM. Besides, in experiment [2] (setting [4]), the IC50 is 0.0518 µM.

As for `O=C(CN1Cc2cc(Cl)c3c(Cl)c[nH]c3c2NS1(=O)=O)N1CCOCC1` [Compound 92, 2-(6,7-dichloro-2,2-dioxido-4,9-dihydro-[1,2,6]thiadiazino[4,3-g]indol-3(1H)-yl)-1-morpholinoethan-1-one], the EC50 in experiment [1] (setting [3]) came out at 0.0007 µM. Also, in experiment [2] (setting [4]), the half-inhibitory concentration (IC50) came to 0.965 µM. For `C=CCN1Cc2cc(Cl)c3c(Cl)c[nH]c3c2NS1(=O)=O` [Compound 93, 3-allyl-6,7-dichloro-1,3,4,9-tetrahydro-[1,2,6] thiadiazino[4,3-g]indole 2,2-dioxide], in that order: 0.0016 µM and 0.773 µM. For `O=S1(=O)Nc2c(cc(Cl)c3c(Cl)c[nH]c23)CN1CCC1COC1` [Compound 94, 6,7-dichloro-3-(2-(oxetan-3-yl)ethyl)-1,3,4,9-tetrahydro-[1,2,6] thiadiazino[4,3-g]indole 2,2-dioxide], in that order: 0.0029 µM and 0.362 µM. `O=S1(=O)Nc2c(cc(Cl)c3c(Cl)c[nH]c23)CN1CC1CCCOC1` (centres unmarked) [Compound 95, 6,7-dichloro-3-((tetrahydro-2H-pyran-3-yl)methyl)-1,3,4,9-tetrahydro-[1,2,6] thiadiazino[4,3-g]indole 2,2-dioxide]: the EC50 in experiment [1] (setting [3]) is 0.0012 µM. Moreover, the IC50 in experiment [2] (setting [4]) worked out at 0.0949 µM. Taken in the same sequence, the figures for `O=S1(=O)Nc2c(cc(Cl)c3c(Cl)c[nH]c23)CN1CC1CCCCO1` (centres unmarked) [Compound 96, 6,7-dichloro-3-((tetrahydro-2H-pyran-2-yl)methyl)-1,3,4,9-tetrahydro-[1,2,6] thiadiazino[4,3-g]indole 2,2-dioxide] were 0.0012 µM and 0.215 µM. Turning to `O=c1[nH]ccc(CN2Cc3cc(Cl)c4c(Cl)c[nH]c4c3NS2(=O)=O)c1Cl` [Compound 97, 3-chloro-4-((6,7-dichloro-2,2-dioxido-4,9-dihydro-[1,2,6]thiadiazino [4,3-g]indol-3(1H)-yl)methyl)pyridin-2(1H)-one], in experiment [1] (setting [3]), the EC50 was 0.0017 µM. In the case of `O=c1cc(CN2Cc3cc(Cl)c4c(Cl)c[nH]c4c3NS2(=O)=O)c(Cl)c[nH]1` [Compound 98, 5-chloro-4-((6,7-dichloro-2,2-dioxido-4,9-dihydro-[1,2,6]thiadiazino [4,3-g]indol-3(1H)-yl)methyl)pyridin-2(1H)-one], the EC50 in experiment [1] (setting [3]) was found to be 0.0023 µM. Moreover, in experiment [2] (setting [4]), the IC50 turned out to be 0.181 µM.

On to `COCCN1Cc2cc(F)c3c(C#N)c[nH]c3c2NS1(=O)=O` [Compound 99, 6-fluoro-3-(2-methoxyethyl)-1,3,4,9-tetrahydro-[1,2,6] thiadiazino[4,3-g]indole-7-carbonitrile 2,2-dioxide], for which, in experiment [1] (setting [3]), the EC50 came to 0.212 µM. The IC50 in experiment [2] (setting [4]) was found to be 30.8 µM. For `COCCN1Cc2ccc3c(C#N)c[nH]c3c2NS1(=O)=O` [Compound 100, 3-(2-methoxyethyl)-1,3,4,9-tetrahydro-[1,2,6] thiadiazino[4,3-g]indole-7-carbonitrile 2,2-dioxide], in that order: 0.168 µM and ≥ 100 µM.

For the origin of these results see patent US20240294548A1, “TRICYCLIC SULTAMS AND SULFAMIDES AS ANTITUMOR AGENTS” (PELOTON THERAPEUTICS INC., priority 2021, published 2024).
